Calls of active or inactive are those of the source. The rule behind the calls is not given here.
test system: Trypanosoma brucei brucei; assay: Antitrypanosomal activity against suramin sensitive Trypanosoma brucei brucei Lister 427 assessed as reduction in parasite growth after 3 days by fluorometrically; assay type: functional, organism-based; settings: Lister 427, 72 h

Structure (SMILES) | IC50 [µM]
N=C(N)c1ccc(CN2C[C@H](O)[C@H](O)[C@H]2CO)cc1 | 48
N=C(N)NCCCN1C[C@H](O)[C@H](O)[C@H]1CO | > 64
OC[C@@H]1[C@@H](O)[C@@H](O)CN1Cc1cccc(-n2cccc2)c1 | 29
OC[C@@H]1[C@@H](O)[C@@H](O)CN1Cc1ccc(I)cc1 | > 64
N=C(N)NCCN1C[C@H](O)[C@H](O)[C@H]1CO | > 64
OC[C@@H]1[C@@H](O)[C@@H](O)CN1Cc1ccnc2ccccc12 | > 64
OC[C@@H]1[C@@H](O)[C@@H](O)CN1Cc1ccc(-n2cccn2)cc1 | > 64
OC[C@@H]1[C@@H](O)[C@@H](O)CN1Cc1cccc2ccc(Cl)nc12 | 29
OC[C@@H]1[C@@H](O)[C@@H](O)CN1Cc1ccc(-n2cccc2)cc1 | 38
N#Cc1cccc(CN2C[C@H](O)[C@H](O)[C@H]2CO)c1 | > 64
OC[C@H]1NC[C@H](O)[C@@H]1O [IMINORIBITOL] | > 64

test system: Leishmania infantum; assay: Antileishmanial activity against Leishmania infantum MHOM/MA/67/ITMAP263 intracellular amastigotes assessed as reduction in parasite growth after 3 days by fluorometrically; assay type: functional, organism-based; settings: not given

Structure (SMILES) | Activity
OC[C@@H]1[C@@H](O)[C@@H](O)CN1Cc1ccccc1 | inactive
N#Cc1ccc(CN2C[C@H](O)[C@H](O)[C@H]2CO)cc1 | inactive
OC[C@@H]1[C@@H](O)[C@@H](O)CN1Cc1nccc2ccccc12 | inactive
OC[C@@H]1[C@@H](O)[C@@H](O)CN1Cc1ccncc1 | inactive
OC[C@@H]1[C@@H](O)[C@@H](O)CN1Cc1ccc2ccccc2n1 | inactive
CN1C(CCNC(=N)N)[C@H](O)[C@H](O)[C@H]1CO (stereo partly drawn) | inactive
N=C(N)c1ccc(CN2C[C@H](O)[C@H](O)[C@H]2CO)cc1 | inactive
N=C(N)NCCCN1C[C@H](O)[C@H](O)[C@H]1CO | inactive
OC[C@@H]1[C@@H](O)[C@@H](O)CN1Cc1cccc(-n2cccc2)c1 | inactive
OC[C@@H]1[C@@H](O)[C@@H](O)CN1Cc1ccc(I)cc1 | inactive
N=C(N)NCCN1C[C@H](O)[C@H](O)[C@H]1CO | inactive
OC[C@@H]1[C@@H](O)[C@@H](O)CN1Cc1ccnc2ccccc12 | inactive
Cn1c(CN2C[C@H](O)[C@H](O)[C@H]2CO)nc2ccccc21 | inactive
OC[C@@H]1[C@@H](O)[C@@H](O)CN1Cc1ccc(-n2cccn2)cc1 | inactive
OC[C@@H]1[C@@H](O)[C@@H](O)CN1Cc1cccc2ccc(Cl)nc12 | inactive
OC[C@@H]1[C@@H](O)[C@@H](O)CN1Cc1ccc(-n2cccc2)cc1 | inactive
N#Cc1cccc(CN2C[C@H](O)[C@H](O)[C@H]2CO)c1 | inactive
OC[C@H]1NC[C@H](O)[C@@H]1O [IMINORIBITOL] | inactive

target: not listed separately; assay: Inhibition of Trypanosoma vivax Inosine-adenosine-guanosine-nucleoside hydrolase; settings: not given

Structure (SMILES) | Ki [µM]
OC[C@@H]1[C@@H](O)[C@@H](O)CN1Cc1ccccc1 | 58
N#Cc1ccc(CN2C[C@H](O)[C@H](O)[C@H]2CO)cc1 | 26
OC[C@@H]1[C@@H](O)[C@@H](O)CN1Cc1nccc2ccccc12 | 0.75
OC[C@@H]1[C@@H](O)[C@@H](O)CN1Cc1ccncc1 | 20
OC[C@@H]1[C@@H](O)[C@@H](O)CN1Cc1ccc2ccccc2n1 | 0.18
CN1C(CCNC(=N)N)[C@H](O)[C@H](O)[C@H]1CO (stereo partly drawn) | 18
N=C(N)c1ccc(CN2C[C@H](O)[C@H](O)[C@H]2CO)cc1 | 6.7
N=C(N)NCCCN1C[C@H](O)[C@H](O)[C@H]1CO | 39.9
OC[C@@H]1[C@@H](O)[C@@H](O)CN1Cc1cccc(-n2cccc2)c1 | 3.4
OC[C@@H]1[C@@H](O)[C@@H](O)CN1Cc1ccc(I)cc1 | 4.3
N=C(N)NCCN1C[C@H](O)[C@H](O)[C@H]1CO | 286
OC[C@@H]1[C@@H](O)[C@@H](O)CN1Cc1ccnc2ccccc12 | 29
Cn1c(CN2C[C@H](O)[C@H](O)[C@H]2CO)nc2ccccc21 | 2.1
OC[C@@H]1[C@@H](O)[C@@H](O)CN1Cc1ccc(-n2cccn2)cc1 | 1.2
OC[C@@H]1[C@@H](O)[C@@H](O)CN1Cc1cccc2ccc(Cl)nc12 | 0.31
OC[C@@H]1[C@@H](O)[C@@H](O)CN1Cc1ccc(-n2cccc2)cc1 | 1
N#Cc1cccc(CN2C[C@H](O)[C@H](O)[C@H]2CO)c1 | 3.8
OC[C@H]1NC[C@H](O)[C@@H]1O [IMINORIBITOL] | 6

test system: Plasmodium falciparum; assay: Antiparasitic activity against chloroquine-sensitive Plasmodium falciparum Ghana assessed as reduction in parasite growth after 3 days by fluorimetry; assay type: functional, organism-based; settings: not given

Structure (SMILES) | Activity
OC[C@@H]1[C@@H](O)[C@@H](O)CN1Cc1ccccc1 | inactive
N#Cc1ccc(CN2C[C@H](O)[C@H](O)[C@H]2CO)cc1 | inactive
OC[C@@H]1[C@@H](O)[C@@H](O)CN1Cc1nccc2ccccc12 | inactive
OC[C@@H]1[C@@H](O)[C@@H](O)CN1Cc1ccncc1 | inactive
OC[C@@H]1[C@@H](O)[C@@H](O)CN1Cc1ccc2ccccc2n1 | inactive
CN1C(CCNC(=N)N)[C@H](O)[C@H](O)[C@H]1CO (stereo partly drawn) | inactive
N=C(N)c1ccc(CN2C[C@H](O)[C@H](O)[C@H]2CO)cc1 | inactive
N=C(N)NCCCN1C[C@H](O)[C@H](O)[C@H]1CO | inactive
OC[C@@H]1[C@@H](O)[C@@H](O)CN1Cc1cccc(-n2cccc2)c1 | inactive
OC[C@@H]1[C@@H](O)[C@@H](O)CN1Cc1ccc(I)cc1 | inactive
N=C(N)NCCN1C[C@H](O)[C@H](O)[C@H]1CO | inactive
OC[C@@H]1[C@@H](O)[C@@H](O)CN1Cc1ccnc2ccccc12 | inactive
Cn1c(CN2C[C@H](O)[C@H](O)[C@H]2CO)nc2ccccc21 | inactive
OC[C@@H]1[C@@H](O)[C@@H](O)CN1Cc1ccc(-n2cccn2)cc1 | inactive
OC[C@@H]1[C@@H](O)[C@@H](O)CN1Cc1cccc2ccc(Cl)nc12 | inactive
OC[C@@H]1[C@@H](O)[C@@H](O)CN1Cc1ccc(-n2cccc2)cc1 | inactive
N#Cc1cccc(CN2C[C@H](O)[C@H](O)[C@H]2CO)c1 | inactive
OC[C@H]1NC[C@H](O)[C@@H]1O [IMINORIBITOL] | inactive

test system: Trypanosoma cruzi; assay: Antitrypanosomal activity against Trypanosoma cruzi Tulahuen CL2 s-galactosidase strain assessed as reduction in parasite growth after 3 days by fluorometrically; assay type: functional, organism-based; settings: not given

Structure (SMILES) | Activity
OC[C@@H]1[C@@H](O)[C@@H](O)CN1Cc1ccccc1 | inactive
N#Cc1ccc(CN2C[C@H](O)[C@H](O)[C@H]2CO)cc1 | inactive
OC[C@@H]1[C@@H](O)[C@@H](O)CN1Cc1nccc2ccccc12 | inactive
OC[C@@H]1[C@@H](O)[C@@H](O)CN1Cc1ccncc1 | inactive
OC[C@@H]1[C@@H](O)[C@@H](O)CN1Cc1ccc2ccccc2n1 | inactive
CN1C(CCNC(=N)N)[C@H](O)[C@H](O)[C@H]1CO (stereo partly drawn) | inactive
N=C(N)c1ccc(CN2C[C@H](O)[C@H](O)[C@H]2CO)cc1 | inactive
N=C(N)NCCCN1C[C@H](O)[C@H](O)[C@H]1CO | inactive
OC[C@@H]1[C@@H](O)[C@@H](O)CN1Cc1cccc(-n2cccc2)c1 | inactive
OC[C@@H]1[C@@H](O)[C@@H](O)CN1Cc1ccc(I)cc1 | inactive
N=C(N)NCCN1C[C@H](O)[C@H](O)[C@H]1CO | inactive
OC[C@@H]1[C@@H](O)[C@@H](O)CN1Cc1ccnc2ccccc12 | inactive
Cn1c(CN2C[C@H](O)[C@H](O)[C@H]2CO)nc2ccccc21 | inactive
OC[C@@H]1[C@@H](O)[C@@H](O)CN1Cc1ccc(-n2cccn2)cc1 | inactive
OC[C@@H]1[C@@H](O)[C@@H](O)CN1Cc1cccc2ccc(Cl)nc12 | inactive
OC[C@@H]1[C@@H](O)[C@@H](O)CN1Cc1ccc(-n2cccc2)cc1 | inactive
N#Cc1cccc(CN2C[C@H](O)[C@H](O)[C@H]2CO)c1 | inactive
OC[C@H]1NC[C@H](O)[C@@H]1O [IMINORIBITOL] | inactive
